{"source": "patent US8614313B2", "about": "“Pharmaceutical compositions comprising forms of 5-azacytidine” (Pharmion LLC, priority 2003, dated 2013)", "assay_type_in_all_cases": "physicochemical", "key": {"[1]": {"test": "Polymorphic form conversion: Form I slurried in various solvents, recovered solid analyzed using XRPD", "description": "(§1) X-ray powder diffraction patterns for each sample were obtained on a Scintag XDS 2000 or a Scintag X2 θ/θ diffractometer operating with copper radiation at 45 kV and 40 mA using a Kevex Psi Peltier-cooled silicon detector or a Thermo ARL Peltier-cooled solid state detector. Source slits of 2 or 4 mm and detector slits of 0.5 or 0.3 mm were used for data collection. Recrystallized material was gently milled using an agate mortar and pestle for approximately one minute. Samples were placed in a stainless steel or silicon sample holder and leveled using a glass microscope slide. Powder diffraction patterns of the samples were obtained from 2 to 42° 2θ at 1°/minute. Calibration of the X2 diffractometer is verified annually using a silicon powder standard.\nForm I of 5-azacytidine was added to various solvents in sufficient quantities to form a slurry, and the slurry allowed to equilibrate for a period of time. The solid material that was present in the slurry was recovered, dried, and analyzed using XRPD (according to the XRPD protocol included in Example 5) with the aim of detecting new polymorphs and pseudopolymorphs during the transition to the dissolved state."}, "[2]": {"test": "Polymorphic form conversion of other forms slurried in water, solid analyzed using XRPD", "conditions": "approximate 25 mg/mL, equilibrated 15 minutes", "description": "as §1"}, "[3]": {"test": "Dehydration of Form III by heating; TGA water content and XRPD", "description": "as §1\nThermogravimetric Analysis (TGA) measurements for each sample were collected using a Perkin Elmer TGA 7 purged with nitrogen at approximately 20 cc/minute. A 100-mg standard weight and nickel metal were used to verify balance and temperature calibrations, respectively. Samples were heated from 25° C. to 250° C. or 300° C. at 10° C./minute.\n5-azacytidine Form III was heated at 105° C. for 4 hours in an attempt to dehydrate the material. […] TGA was used to measure the water content of Form III before and after drying."}}, "data": [{"smiles": "Nc1ncn([C@@H]2O[C@H](CO)[C@@H](O)[C@H]2O)c(=O)n1", "note": "[Form I, 5-azacytidine]", "values": [{"measurement": "XRPD Pattern Assignment", "setting": "[1]; slurry equilibrated 19 hours in 5% Dextrose", "result": "Form III"}, {"measurement": "XRPD Pattern Assignment", "setting": "[1]; slurry equilibrated 19 hours in 5% Tween 80", "result": "Form III"}, {"measurement": "XRPD Pattern Assignment", "setting": "[1]; slurry equilibrated 19 hours in 50/50 EtOH/DI Water", "result": "Form III"}, {"measurement": "XRPD Pattern Assignment", "setting": "[1]; slurry equilibrated 19 hours in Acetone", "result": "Form I"}, {"measurement": "XRPD Pattern Assignment", "setting": "[1]; slurry equilibrated 19 hours in DI Water", "result": "Form III"}, {"measurement": "XRPD Pattern Assignment", "setting": "[1]; slurry equilibrated 19 hours in DMSO", "result": "Amorphous"}, {"measurement": "XRPD Pattern Assignment", "setting": "[1]; slurry equilibrated 19 hours in Ethyl alcohol", "result": "Form I"}, {"measurement": "XRPD Pattern Assignment", "setting": "[1]; slurry equilibrated 19 hours in Methyl ethyl ketone", "result": "Form I"}, {"measurement": "XRPD Pattern Assignment", "setting": "[1]; slurry equilibrated 19 hours in Normal Saline", "result": "Form III"}, {"measurement": "XRPD Pattern Assignment", "setting": "[1]; slurry equilibrated 19 hours in Polyethylene glycol", "result": "Amorphous"}, {"measurement": "XRPD Pattern Assignment", "setting": "[1]; slurry equilibrated 19 hours in Propylene glycol", "result": "Amorphous"}, {"measurement": "XRPD Pattern Assignment", "setting": "[1]; slurry equilibrated 19 hours in Water-saturated Octanol", "result": "Form III"}]}, {"smiles": "Nc1ncn([C@@H]2O[C@H](CO)[C@@H](O)[C@H]2O)c(=O)n1", "note": "[Form I/II mixed phase, 5-azacytidine]", "values": [{"measurement": "form observed by XRPD after slurry in water", "setting": "[2]", "result": "Form III"}]}, {"smiles": "Nc1ncn([C@@H]2O[C@H](CO)[C@@H](O)[C@H]2O)c(=O)n1", "note": "[Form III, 5-azacytidine]", "values": [{"measurement": "amount of moisture (TGA)", "setting": "[3]; after drying at 105° C. for 4 hours", "result": "< 0.1", "unit": "%"}, {"measurement": "XRPD powder pattern after dehydration", "setting": "[3]; heated at 105° C. for 4 hours", "result": "matches that of Form I"}, {"measurement": "amount of moisture (TGA)", "setting": "[3]; initial, before drying", "result": 6.31, "unit": "%"}]}]}
